Data as given in patent US4885361A, “Sulfated oligosaccharides” (Hoffmann-La Roche Inc., priority 1987, dated 1989).

Tests used:
[1] = test system: Factor Xa; test: Inhibition of Factor Xa in the Chromogenic Substrate Assay; assay type: biochemical; conditions: Factor Xa 2.8 nkat/ml, Bz-CO-Ile-Glu-Arg-NH.pNA
[2] = test system: Swiss 3T3 mouse fibroblastoid cells; test: anti-proliferative activity, Swiss 3T3 cells; assay type: cell-based; conditions: net proliferation, cells collected on the 4th day, 10% calf serum
Experimental: (§1) Cells of different origin (Swiss 3T3 mouse fibroblastoid cells, HSMC: human smooth muscle cells and endothelial cells, both isolated from human umbilical cord veins) in RPMI 1640 medium containing 10% calf serum (Swiss 3T3 cells), 15% fetal calf serum (HSMC) or 15% fetal calf serum plus 300 μg/ml of endothelial cell growth supplement (endothelial cells) were cultivated at 37° C. in water-saturated air/5% Co2. Confluent cultures were then washed once with HBSS, removed with 0.05% trypsin/0.02%EDTA and collected by centrifugation. The cells were applied to cell culture plates with a density of 5000 cells/culture and the test compound was added one hour later. The cells were then incubated at 37° C. in air/5% CO2 and collected on the 4th day (Swiss 3T3) and on the 7th day (HSMC and endothelial cells). In order to determine th number of cells, these were washed once with HBSS and adhering cells were incubated for 10 minutes at 37° C. with 0.5 ml of trypsin/EDTA solution for separation. 0.5 ml of formol solution (0.5% paraformaldehyde, 0.145M NaCl, 1.3 mM EDTA) was added to each culture in order to fix the cells. […] The number of cells was determined with a Coulter counter. The inhibitory action by the test compounds was determined as follows: [formula] with the net proliferation being the number of cells at the end of the test minus the number of cells on day 1 (=24 hour after inoculation). […]

[3] = test system: HSMC: human smooth muscle cells; test: anti-proliferative activity, human smooth muscle cells; assay type: cell-based; conditions: net proliferation, cells collected on the 7th day, 15% fetal calf serum
Experimental: as §1

[4] = test system: Factor Xa; test: anti-Xa Clotting Assay; assay type: biochemical; conditions: concentration which leads to a coagulation time double the control value; citrated plasma, 37° C.
Experimental: anti-Xa Clotting Assay: 25 μl of citrated plasma having various concentrations of test compound are mixed with 75 μl of Factor Xa (the activated blood coagulation factor X) diluted 1:100 with 0.63% citrated buffer (pH 7.3) which contains 41 mM imidazole, 82 mM NaCl and 0.1% albumin. After warming to 37° C. for 2 minutes 200 μl of a 1:1 mixture of Factor X Deficient Plasma and Platelet Substitute are added and the mixture is incubated at 37° C. for 20 seconds. After the addition of 100 μl of prewarmed 50 mM calcium chloride solution the coagulation time is measured in a Fibrometer.
(§2) The activity of the test compound is given as the IC50 which is the concentration [μg/ml] which leads to a coagulation time which is double the control value.

[5] = test system: citrated human plasma (aPTT, coagulation); test: aPTT (activated partial thromboplastin time) Test; assay type: biochemical; conditions: concentration which leads to a coagulation time double the control value, 37° C.
Experimental: aPTT (activated partial thromboplastin time) Test (see Walenga et al., CRC Critical Reviews in Laboratory Sciences 22 (4) 361-389 (1986)): 100 μl of citrated human plasma, which contains various concentrations of test compound, is mixed at 37° C. for 8 minutes with 100μ of Activated Thrombofax (ellagic acid as contact activator and bovine cephalin as platelet lipid substitute). 100 μl of pre-warmed 25 mM calcium chloride solution are then added and the coagultion time is measured in a Fibrometer Coagulation Timer.
as §2

[6] = test system: thrombin (IIa); test: Inhibition of Thrombin in the Chromogenic Substrate Assay; assay type: biochemical; conditions: amidolytic activity of thrombin reduced by 50% vs plasma control; anti-thrombin III, pH 8.4
Experimental: Inhibition of Thrombin or Factor Xa in the Chromogenic Substrate Assay (Teien et al., Thrombosis Research 10, 399-410 (1977)): The determination was effected in a Cobas-Bio centrifugal automatic spectrophotometer. The buffer solution used consisted of 50 mM Tris buffer, 180 mM NaCl, 7.5 mM EDTA Na2, 1% PEG 6000 (a polyethylene glycol of mol. weight 6000) and 0.02% Tween 80 (a polyoxyethylene sorbitanmonooleate), pH 8.4. The test solution consisted of 50 μl of buffer, 30 μl of anti-thrombin III (1 U/ml), and 20 μl of plasma which contained various concentrations of test compounds. 30 μl of sample solution and 20 μl of water with 180 μl of thrombin were added to the test cuvette in the automatic analyzer. After incubation at 37° C. for 240 seconds 60 μl of the p-nitranilide, H-D-Phe-Pip-Arg-NH.pNA, (0.75 mM in water) and 20 μl of water were added. The liberation of pNA (p-nitroaniline) was followed during 60 seconds at 405 nm in 10 second intervals in comparison to water as the blank. The inhibitory activity is given as the IC50 which is the concentration [μg/ml] at which the amidolytic activity of thrombin is reduced by 50% in comparison to the plasma control value.

[7] = test system: mouse; test: acute toxicity determination in the mouse; assay type: in vivo
Experimental: In an acute toxicity determination in the mouse the compound of Example 1 was still not lethal after the intravenous application of 500 mg/kg or after the subcutaneous application of 4000 mg/kg.

[8] = test system: bloody lesions of the mucous membrane of the stomach; test: mucosa-protective properties (ethanol-induced stomach lesions); assay type: in vivo; conditions: 30 mg/kg oral, 30 minutes prior to ethanol, rat, vs control group
Experimental: The test procedure described hereinafter can be used to determine the mucosa-protective properties:
Oral administration of absolute ethanol to male rats in a dosage of 1 ml per rat leads within 1 hour to bloody lesions of the mucous membrane of the stomach. Various dosages of the substances to be tested (suspended in 0.125% carboxymethylcellulose) or the vehicle alone (control) are administered orally to the rats (1 ml per rat) 30 minutes prior to the treatment with ethanol. One hour after the administration of the ethanol the animals are killed, their stomachs are investigated for the presence of lesions and the number and the total extent of such lesions are determined.

Substance | Chromogenic Substrate (amidolytic activity) IC50, Xa [1] [µg/mL] | IC50 Swiss 3T3 [2] [µg/mL] | IC50 HSCM [3] [µg/mL] | Coagulation inhibition IC50, Xa [4] [µg/mL] | Coagulation inhibition IC50, aPTT [5] [µg/mL] | Chromogenic Substrate (amidolytic activity) IC50, IIa [6] [µg/mL] | lethal dose (not lethal after), intravenous ([7]; intravenous) [mg/kg] | lethal dose (not lethal after), subcutaneous ([7]; subcutaneous) [mg/kg] | reduction of the number of lesions [8] [%]
Heparin [reference compound] | 2.7 | 35 | 45 | 0.6 | 1.2 | 1.9 | – | – | –
trestatin A sulfate sodium salt [Example 1] | 550 | 30 | 20 | > 30 | 7 | > 1000 | > 500 | > 4000 | 28
